Structures can show the parent of a compound that is named as a salt.
What was measured:
[1] = tested on: collagen scaffold cultured with MDA-MB-231; assay: Mechanical testing: stiffness of collagen scaffolds under unconfined uniaxial compression; assay type: cell-based, human; details: 72 h of treatment; CTR 67.3 kPa
Excerpt: As previously described, an in-house built instrument prototype was developed by the inventors to apply a state of unconfined uniaxial compression to the collagen scaffolds. The applied stress (r, in kPa) could then be analyzed by dividing the applied force by the cross section of the sample. The applied force consisted of a pre-load of 1.41 kPa held constantly for 30 s; the full load of 5.97 kPa was then constantly applied for 30 s. The stiffness (compressive modulus, in kPa) of the collagen scaffold cultured with MDA-MB-231 and exposed for 72 h to all treatment groups was computed as the ratio between the increment of stress and increment of strain from the preload to the full load values. The samples were analyzed in air immediately after having been removed from the PBS where they were soaked. Five samples of each type were tested and each specimen was tested 10 times.

[2] = tested on: MDA-MB-231 orthotopic xenograft; assay: In vivo drug testing: tumor growth in orthotopic xenograft (caliper and BLI); design: species or system NU/NU nude mice; details: weekly i.v. 3.24 mg/Kg; caliper; mean ± spread
Description: MDA-MB-231 labeled with luciferase probe (2×10^6 cells/100 μl matrigel) were orthotopically injected into the right mammary fad pad of female immunodeficient NU/NU nude mice [NU-Foxn1nu] 8-10 weeks old (Charles River Laboratories, Wilmington, MA, USA). NU/NU nude mice were housed five per cage at the HMRI animal facility, there were maintained under pathogen free conditions and on low-fluorescence diet according to the National Institutes of Health guidelines.
(§1) Tumor size and body weight were measured with caliper and a digital balance once a week. Tumor volume was calculated according to the formula (W×W×L)/2, where W and L represent the width and the length of tumor, respectively. Body weight change % was calculated were calculated by comparing weights at the start and end of therapy throught the formula throught the formula weight DO/weight D33%.
Furthermore, the impact on tumor growth was validated by performing bioluminescence imaging (BLI) of TNBC tumors at Day 0 and Day 33 (FIG. 4B, Figure S4 supportive information). This was performed in order to support the caliper measurements since the bioluminescent signal obtained from BLI is directly related to the viability of cells and could serve as metric to evaluate impact of therapy. The BLI quantification percentage was calculated throught the formula BLI DO/BLI D33%. […]

[3] = tested on: MDA-MB-231 orthotopic xenograft; assay: Histological analysis (H&E) and collagen quantification of explanted tumors; assay type: in vivo, NU/NU nude mice; details: H&E sections of explanted tumors, 55 days post treatment; control 5%
Description: (§2) Explanted mice organs (heart, liver, spleen, kidneys, lungs, tibia) and tumors were washed twice with PBS, embedded in a cryomold in O.C.T. (Tissue-Tek® O.C.T. Compound, Sakura® Finetek), and frozen at −80 degree. Ten μm-thick slides were obtained cutting tissues block with a cryostat at −20 degree. The slides were then stored at −20 degree until the analysis.
(§3) Hematoxylin and eosin (H&E) staining was performed to evaluate the efficacy and safety of Lipo-EPI-LOX compared to the other treatment groups. Briefly the organs and tumor slides were thawed, hydrated and stained with H&E following the manufacturer's instructions. The stained slides were analyzed with an optical Zeiss Axioskop microscope (Carl Zeiss, Gottingen, Germany) equipped with a Polaroid camera.
Tumors frozen 5-μm-thick slides were fixed for 5 min in formalin 10% solution, then washed and stained with Weigert's haematoxylin. Then the sections were stained with 0.1% (Direct Red 80) (Sigma Aldrich) picrosirius red in saturated aqueous solution of picric acid. The stained slides were analyzed with the NIS Elements software (Nikon Corporation, Tokyo, Japan).

[4] = tested on: MDA-MB-231 orthotopic xenograft; assay: Survival study (Kaplan-Meier); assay type: in vivo, NU/NU nude mice; details: 55 days post treatment
Description: Mice (n=10 per cohort) were sacrificed when the tumor volume reached 2000 mm^3 or when showing signs of morbidity. Data were analyzed using the Kaplan-Meier method. Comparisons among different treatment groups were performed using the log rank test for trend and considered significant with a p value less than 0.05.

[5] = Safety: body weight change and H&E histology of hearts; assay type: in vivo, NU/NU nude mice
Description: as §1, §2, §3

[6] = human, clinical data [28]; cited from earlier work

## COc1cccc2c1C(=O)c1c(O)c3c(c(O)c1C2=O)C[C@@](O)(C(=O)CO)C[C@@H]3O[C@H]1C[C@H](N)[C@@H](O)[C@H](C)O1 [Free EPI, epirubicin hydrochloride]
[1]
  average compressive modulus (scaffold stiffness): 64.38 kPa
[2]
  tumor volume (tumor growth): 1029 mm^3
[3]
  necrotic tumor cells: 20%
[4]
  survival: less than 50%
[5]; H&E hearts
  inflammatory infiltrate in myocardial tissue (cardiotoxicity): increment of cellularity due to the inflammatory infiltrate
[5]; end of study, D33 versus D0, CTR 3.3%
  increase in body weight: 3.7%
[6]
  plasma peak concentration: 3.4 µg/mL

Reference: US20240050587A1, “LIPOSOMES COMPRISING ANTI-LOX ANTIBODY” (ISTITUTO SCIENTIFICO ROMAGNOLO PER LO STUDIO E LA CURA DEI …, priority 2019, published 2024)
